Activity calls are given as the source filed them. The calls are words filed in the database; no cut-off is given here.
Assays:
SK-MEL-28 [1] = experiment: Cytotoxicity against human SK-MEL-28 cells assessed as inhibition of cell growth incubated for 24 hrs by resazurin staining based analysis; format: functional; conditions: SK-MEL-28, 24 h
B16-F10 [2] = experiment: Antitumor activity against mouse B16-F10 cells implanted in C57BL/6 mouse assessed as reduction of tumor weight at 40 mg/kg, ip administered once daily from 6 to 12 days and every alternate days till 18; format: functional, organism-based; conditions: time 13.0 day
[3] = Toxicity in C57BL/6 mouse assessed as change in total bilirubin level at 40 mg/kg, ip administered once daily and measured up to 20 days; format: organism-based; conditions: in vivo, 480 h, time < 20 day
[4] = Toxicity in C57BL/6 mouse assessed as change in albumin level at 40 mg/kg, ip administered once daily and measured up to 20 days; format: organism-based; conditions: in vivo, 480 h, time < 20 day
[5] = Toxicity in C57BL/6 mouse assessed as change in BUN level at 40 mg/kg, ip administered once daily and measured up to 20 days; format: organism-based; conditions: in vivo, 480 h, time < 20 day
[6] = Toxicity in C57BL/6 mouse assessed as change in ALT level at 40 mg/kg, ip administered once daily and measured up to 20 days; format: organism-based; conditions: in vivo, 480 h, time < 20 day
[7] = Toxicity in C57BL/6 mouse assessed as animal survival at 40 mg/kg, ip administered once daily from 6 to 9 days and every alternate days till 19; format: organism-based; conditions: in vivo, time 14 day
[8] = Toxicity in C57BL/6 mouse assessed as animal survival at 40 mg/kg, ip administered once daily from 6 to 9 days and every alternate days till 18; format: organism-based; conditions: in vivo, time 13 day
SK-MEL-5 = experiment: Cytotoxicity against human SK-MEL-5 cells assessed as inhibition of cell growth incubated for 24 hrs by resazurin staining based analysis; format: functional; conditions: SK-MEL-5, 24 h
[9] = Toxicity in C57BL/6 mouse assessed as change in body weight at 40 mg/kg, ip administered once daily and measured up to 20 days; format: organism-based; conditions: in vivo, 480 h, time < 20 day
LOX IMVI [10] = experiment: Cytotoxicity against human LOX IMVI cells assessed as inhibition of cell growth incubated for 24 hrs by resazurin staining based analysis; format: functional
[11] = Toxicity in C57BL/6 mouse assessed as change in creatinine level at 40 mg/kg, ip administered once daily and measured up to 20 days; format: organism-based; conditions: in vivo, 480 h, time < 20 day
[12] = Toxicity in C57BL/6 mouse assessed as change in amylase level at 40 mg/kg, ip administered once daily and measured up to 20 days; format: organism-based; conditions: in vivo, 480 h, time < 20 day
SK-MEL-25 = experiment: Cytotoxicity against human SK-MEL-25 cells assessed as inhibition of cell growth incubated for 24 hrs by resazurin staining based analysis; format: functional; conditions: SK-MEL-25, 24 h
B16-F10 [13] = experiment: Cytotoxicity against mouse B16-F10 cells assessed as inhibition of cell growth incubated for 24 hrs by resazurin staining based analysis; format: functional; conditions: B16-F10, 24 h
[14] = Toxicity in C57BL/6 mouse assessed as change in ALP level at 40 mg/kg, ip administered once daily and measured up to 20 days; format: organism-based; conditions: in vivo, 480 h, time < 20 day
SK-MEL-28 [15] = experiment: Downregulation of ACTB level in human SK-MEL-28 cells at 2 uM measured for 24 hrs by qRT-PCR analysis; format: functional, cell-based
SK-MEL-28 [16] = experiment: Inhibition of cell adhesion in human SK-MEL-28 cells assessed as reduction in number of adherent cells incubated for 1.5 hrs; format: functional, cell-based
SK-MEL-28 [17] = experiment: Inhibition of cell adhesion in human SK-MEL-28 cells at 2.5 uM incubated for 1.5 hrs; format: functional, cell-based
B16-F10 [18] = experiment: Inhibition of cell adhesion in mouse B16-F10 cells at 2.5 uM incubated for 1.5 hrs; format: functional, cell-based
SK-MEL-28 [19] = experiment: Effect on ACTG1 mRNA expression in human SK-MEL-28 cells at 2 uM measured after 24 hrs by qRT-PCR analysis; format: functional, cell-based
SK-MEL-28 [20] = experiment: Upregulation of PARVB mRNA expression in human SK-MEL-28 cells at 2 uM measured for 2 hrs by qPCR analysis; format: functional, cell-based
B16-F10 [21] = experiment: Antitumor activity against mouse B16-F10 cells implanted in C57BL/6 mouse assessed as reduction of tumor weight at 40 mg/kg, ip administered once daily from 6 to 9 days and every alternate days till 18; format: functional, organism-based; conditions: time 13.0 day
SK-MEL-28 [22] = experiment: Inhibition of cell migration in human SK-MEL-28 cells at 1.2 uM incubated for 24 hrs by wound healing assay; format: functional, cell-based
LOX IMVI [23] = experiment: Upregulation of PARVB mRNA expression in human LOX IMVI cells at 2 uM measured for 2 hrs by qPCR analysis; format: functional, cell-based
SK-MEL-28 [24] = experiment: Induction of cell cycle arrest in human SK-MEL-28 cells assessed as accumulation of cells at G2/M phase at 3 uM incubated for 24 hrs by PI staining based flow cytometry analysis; format: functional
B16-F10 [25] = experiment: Inhibition of cell migration in mouse B16-F10 cells at 2 uM incubated for 24 hrs by wound healing assay; format: functional, cell-based
B16-F10 [26] = experiment: Induction of cell cycle arrest in mouse B16-F10 cells assessed as accumulation of cells at G2/M phase at 3 uM incubated for 24 hrs by PI staining based flow cytometry analysis; format: functional
SK-MEL-28 [27] = experiment: Effect on PARVB level in human SK-MEL-28 cells at 2 uM measured after 24 hrs by Western blot analysis; format: functional, cell-based
SK-MEL-28 [28] = experiment: Effect on ACTB level in human SK-MEL-28 cells at 2 uM measured after 24 hrs by Western blot analysis; format: functional, cell-based
B16-F10 [29] = experiment: Antitumor activity against mouse B16-F10 cells implanted in C57BL/6 mouse assessed as inhibition of tumor growth at 40 mg/kg, ip administered once daily from 6 to 9 days and every alternate days till 18; format: functional, organism-based; conditions: time 13.0 day
B16-F10 [30] = experiment: Induction of apoptosis in mouse B16-F10 cells at 8 uM measured for 24 hrs by Annexin V FITC/PI staining based flow cytometry analysis; format: functional, cell-based
SK-MEL-28 [31] = experiment: Effect on ACTB mRNA expression in human SK-MEL-28 cells at 2 uM measured after 24 hrs by qRT-PCR analysis; format: functional, cell-based
B16-F10 [32] = experiment: Inhibition of colony formation in mouse B16-F10 cells at 3 uM incubated for 6 days by crystal violet staining based analysis; format: functional; conditions: B16-F10, 144 h, time 6 day
SK-MEL-28 [33] = experiment: Effect on ACTG1 level in human SK-MEL-28 cells at 2 uM measured after 24 hrs by Western blot analysis; format: functional, cell-based
B16-F10 [34] = experiment: Inhibition of colony formation in mouse B16-F10 cells at 6 uM incubated for 6 days by crystal violet staining based analysis; format: functional; conditions: B16-F10, 144 h, time 6 day
B16-F10 [35] = experiment: Inhibition of cell adhesion in mouse B16-F10 cells assessed as reduction in number of adherent cells incubated for 1.5 hrs; format: functional, cell-based
SK-MEL-28 [36] = experiment: Inhibition of cell adhesion in human SK-MEL-28 cells at 1.5 uM incubated for 1.5 hrs; format: functional, cell-based
SK-MEL-28 [37] = experiment: Inhibition of colony formation in human SK-MEL-28 cells at 3 uM incubated for 6 days by crystal violet staining based analysis; format: functional; conditions: SK-MEL-28, 144 h, time 6 day
SK-MEL-28 [38] = experiment: Inhibition of colony formation in human SK-MEL-28 cells at 6 uM incubated for 6 days by crystal violet staining based analysis; format: functional; conditions: SK-MEL-28, 144 h, time 6 day
SK-MEL-28 [39] = experiment: Inhibition of cell migration in human SK-MEL-28 cells at 1 uM incubated for 24 hrs by wound healing assay; format: functional, cell-based
SK-MEL-28 [40] = experiment: Inhibition of colony formation in human SK-MEL-28 cells at 3 uM incubated for 8 days by crystal violet staining based analysis; format: functional; conditions: SK-MEL-28, 192 h, time 8 day
SK-MEL-28 [41] = experiment: Inhibition of colony formation in human SK-MEL-28 cells at 6 uM incubated for 8 days by crystal violet staining based analysis; format: functional; conditions: SK-MEL-28, 192 h, time 8 day
B16-F10 [42] = experiment: Inhibition of cell adhesion in mouse B16-F10 cells at 1.5 uM incubated for 1.5 hrs; format: functional, cell-based

Structure (SMILES) | IC50 (SK-MEL-28 [1]) [µM] | Activity (B16-F10 [2]) | Activity [3] | Activity [4] | Activity [5] | Activity [6] | survival at 336 h [7] [%] | survival at 312 h [8] [%] | IC50 (SK-MEL-5) [µM] | Activity [9] | IC50 (LOX IMVI [10]) [µM] | Activity [11] | Activity [12] | IC50 (SK-MEL-25) [µM] | IC50 (B16-F10 [13]) [µM] | Activity [14] | Activity (SK-MEL-28 [15]) | inhibition (SK-MEL-28 [16]) | Activity (B16-F10 [21]) | Activity (SK-MEL-28 [24]) | other results
C#C[C@]1(O)CC[C@H]2[C@@H]3CC=C4c5sc(Nc6ccccc6)nc5CC[C@]4(C)[C@H]3CC[C@@]21C | 1.7 | Active | Non-toxic | Non-toxic | Non-toxic | Non-toxic | 10 | ~80 | 2.4 | Non-toxic | 1.6 | Non-toxic | Non-toxic | 1.6 | 2.7 | Non-toxic | – | – | – | – | –
C#C[C@]1(O)CC[C@H]2[C@@H]3CC=C4c5sc(-c6ccc(O)c(O)c6)nc5CC[C@]4(C)[C@H]3CC[C@@]21C | 3.6 | Active | Non-toxic | Non-toxic | Non-toxic | Non-toxic | 80 | ~80 | 3.7 | Non-toxic | 4.4 | Non-toxic | Non-toxic | 2.5 | 2.6 | Non-toxic | Active | Active | Active | Active | inhibition (SK-MEL-28 [17]): Active; inhibition (B16-F10 [18]): Active; Activity (SK-MEL-28 [19]): Active; Activity (SK-MEL-28 [20]): Active; inhibition (SK-MEL-28 [22]): Active; Activity (LOX IMVI [23]): Active; inhibition (B16-F10 [25]): Active; Activity (B16-F10 [26]): Active; Activity (SK-MEL-28 [27]): Active; Activity (SK-MEL-28 [28]): Active; TGI (B16-F10 [29]): Active; Activity (B16-F10 [30]): Active; Activity (SK-MEL-28 [31]): Active; inhibition at 3 µM (B16-F10 [32]): 100%; Activity (SK-MEL-28 [33]): Active; inhibition at 6 µM (B16-F10 [34]): 100%; inhibition (B16-F10 [35]): Active
C#C[C@]1(O)CC[C@H]2[C@@H]3CC=C4c5sc(Nc6ccc(F)cc6F)nc5CC[C@]4(C)[C@H]3CC[C@@]21C | 1.8 | – | – | – | – | – | – | – | 1.9 | – | 1.6 | – | – | 2.4 | 2.5 | – | Active | Active | Active | Active | inhibition (SK-MEL-28 [36]): Active; inhibition at 3 µM (SK-MEL-28 [37]): 100%; inhibition (B16-F10 [25]): Active; inhibition at 6 µM (SK-MEL-28 [38]): 100%; inhibition (SK-MEL-28 [39]): Active; inhibition at 3 µM (SK-MEL-28 [40]): 100%; TGI (B16-F10 [29]): Active; Activity (B16-F10 [30]): Active; inhibition at 3 µM (B16-F10 [32]): 100%; inhibition at 6 µM (SK-MEL-28 [41]): 100%; inhibition at 6 µM (B16-F10 [34]): 100%; inhibition (B16-F10 [35]): Active; inhibition (B16-F10 [42]): Active

Reference: ChEMBL document CHEMBL6182831, “Thiazole-fused androstenone and ethisterone derivatives: potent β- and γ-actin cytoskeleton inhibitors to treat melanoma tumors” (RSC Med Chem, 2025)
